Legend:
human 17β-HSD1 = target: T1, human 17β-HSD1 (Homo sapiens, UniProt P14061); experiment: 17β-HSD1 cell free assay (placental cytosolic enzyme, [3H]E1 to E2, HPLC radiodetection); format: biochemical; conditions: for inhibition at 1 µM / 17β-HSD1 % inhib. (1µM): inhibitor 1 µM, less than 10% = inactive, ni = no inhibition; for inhibition at 1 µM / IC50 / 17β-HSD1 % inhib. (1µM): human placenta cytosolic fraction, [3H]E1 + E1 500 nM, NADH 500 µM; for inhibition at 1 µM: read-out: 17β-HSD1 % inhib. (1µM); for IC50: mean of three determinations
T1 construct: In the cell free assay, the placental cytosolic enzyme was used; from tissue; host or cells: human placenta, cytosolic fraction, ammonium sulfate precipitate
T1 sequence (P14061 1-328): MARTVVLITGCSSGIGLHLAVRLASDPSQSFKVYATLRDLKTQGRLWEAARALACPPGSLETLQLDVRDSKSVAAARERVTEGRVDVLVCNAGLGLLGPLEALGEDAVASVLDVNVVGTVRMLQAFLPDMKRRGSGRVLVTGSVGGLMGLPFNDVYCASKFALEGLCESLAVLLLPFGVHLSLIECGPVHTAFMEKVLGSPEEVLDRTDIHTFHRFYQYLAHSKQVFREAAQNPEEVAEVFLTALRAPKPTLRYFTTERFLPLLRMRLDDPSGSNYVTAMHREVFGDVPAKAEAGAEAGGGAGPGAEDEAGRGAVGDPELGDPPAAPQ
Experimental: In the cell free assay, the placental cytosolic enzyme was used. Tritiated E1 (final concentration: 500 nM) was incubated with 17β-HSD1, NADH (500 µM), and inhibitor as previously described [59]. After high performance liquid chromatography (HPLC) separation of substrate and product, the amount of labeled E2 formed was quantified.
Inhibitory activities were evaluated by an established method with minor modifications. Briefly, the enzyme preparation was incubated with NADH [500 µM] in the presence of potential inhibitors at 37 °C in a phosphate buffer (50 mM) supplemented with 20 % of glycerol and EDTA (1mM). Inhibitor stock solutions were prepared in DMSO. The final concentration of DMSO was adjusted to 1 % in all samples. The enzymatic reaction was started by addition of a mixture of unlabelled- and [2, 4, 6, 7-^3H]-E1 (final concentration: 500 nM, 0.15 µCi). After 10 min, the incubation was stopped with HgCl2 and the mixture was extracted with diethylether. After evaporation, the steroids were dissolved in acetonitrile. E1 and E2 were separated using acetonitrile/water (45:55) as mobile phase in a C18 reverse phase chromatography column (Nucleodur C18 Gravity, 3 µm, Macherey-Nagel, Düren) connected to a HPLC-system (Agilent 1100 Series, Agilent Technologies, Waldbronn). Detection and quantification of the steroids were performed using a radioflow detector (Berthold Technologies, Bad Wildbad). The conversion rate was calculated after analysis of the resulting chromatograms according to the following equation: % conversion = % E2/(% E2 + % E1) × 100. Each value was calculated from at least three independent experiments.

human 17β-HSD2 = target: T2, human 17β-HSD2 (Homo sapiens, UniProt P37059); experiment: 17β-HSD2 cell free assay (placental microsomal enzyme, [3H]E2 to E1, HPLC radiodetection); format: biochemical; conditions: for IC50: human placenta microsomal fraction, [3H]E2 + E2 500 nM, NAD+ 1500 µM, mean of three determinations; for SF, selectivity factor = IC50(17β-HSD2)/IC50(17β-HSD1): ratio of cell free IC50 values
T2 construct: 17β-HSD2 was obtained from the microsomal fraction; from tissue; host or cells: human placenta, microsomal fraction
T2 sequence (P37059 1-387): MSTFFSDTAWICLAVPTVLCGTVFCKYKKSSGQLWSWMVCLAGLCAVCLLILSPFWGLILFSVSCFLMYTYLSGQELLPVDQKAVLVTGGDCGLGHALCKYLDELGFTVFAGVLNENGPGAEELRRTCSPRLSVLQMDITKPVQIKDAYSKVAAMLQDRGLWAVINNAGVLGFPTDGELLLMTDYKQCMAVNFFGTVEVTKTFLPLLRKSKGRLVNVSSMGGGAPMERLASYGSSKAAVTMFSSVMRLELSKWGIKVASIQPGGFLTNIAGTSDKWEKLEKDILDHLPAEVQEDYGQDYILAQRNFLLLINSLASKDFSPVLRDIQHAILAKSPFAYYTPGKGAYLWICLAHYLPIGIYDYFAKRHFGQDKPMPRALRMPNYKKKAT
Experimental: Placental microsomal 17β-HSD2 was incubated with tritiated E2 (final concentration: 500 nM) in the presence of NAD^+ (1500 µM) and inhibitor. Separation and quantification of labeled substrate (E2) and product (E1) was performed by HPLC using radiodetection.
17β-HSD1 and 17β-HSD2 were obtained from human placenta according to previously described procedures. Fresh human placenta was homogenized and cytosolic fraction and microsomes were separated by centrifugation. For the partial purification of 17β-HSD1, the cytosolic fraction was precipitated with ammonium sulfate. 17β-HSD2 was obtained from the microsomal fraction.
Inhibition of 17β-HSD2. The 17β-HSD2 inhibition assay was performed similarly to the 17β-HSD1 procedure. The microsomal fraction was incubated with NAD^+ [1500 µM], test compound and a mixture of unlabelled- and [2, 4, 6, 7-^3H]-E2 (final concentration: 500 nM, 0.11 µCi) for 20 min at 37 °C. Further treatment of the samples and HPLC separation were carried out as mentioned above.
The conversion rate was calculated after analysis of the resulting chromatograms according to the following equation: % conversion = % E1/(% E1 + % E2) × 100.

ERs = test system: ERs; set-up: method as in PMID 15743715, PMID 16728493; conditions: RBA(E2) = 100%; cited from earlier work
17β-HSD1 = test system: 17β-HSD1; set-up: method as in PMID 12223444; conditions: recombinant protein, NADPH as cosubstrate; value as described; read-out: 17β-HSD1 IC50 (external reference); cited from earlier work

## Cc1nc(C(=O)c2cccc(O)c2)sc1CCO [Compound 5, [5-(2-hydroxyethyl)-4-methyl-1,3-thiazol-2-yl](3-hydroxyphenyl)methanone]
Human 17β-HSD1
  inhibition at 1 µM: 34%

## O=C(c1cccc(O)c1)c1nc2ccc(O)cc2s1 [Compound 6, (6-hydroxy-1,3-benzothiazol-2-yl)(3-hydroxyphenyl)methanone]
Human 17β-HSD1
  IC50: 44 nM
  inhibition at 1 µM: 91%
Human 17β-HSD2
  IC50: 1040 nM
  SF, selectivity factor = IC50(17β-HSD2)/IC50(17β-HSD1): 24

## COc1cccc(C(=O)c2nc3ccc(OC)cc3s2)c1 [Compound 6i]
Human 17β-HSD1
  17β-HSD1 % inhib. (1µM): ni.

## Oc1cccc(C(O)c2nc3ccc(O)cc3s2)c1 (stereo not shown) [Compound 7]
Human 17β-HSD1
  inhibition at 1 µM: 28%

## COC(c1cccc(O)c1)c1nc2ccc(O)cc2s1 (stereo not shown) [Compound 8]
Human 17β-HSD1
  inhibition at 1 µM: 13%

## CSC(c1ccc(O)cc1)c1nc2ccc(O)cc2s1 (stereo not shown) [Compound 9]
Human 17β-HSD1
  17β-HSD1 % inhib. (1µM): ni
  inhibition at 1 µM: 7%

## COc1ccc2nc(Cc3ccc(O)cc3)sc2c1 [Compound 10]
Human 17β-HSD1
  17β-HSD1 % inhib. (1µM): ni

## Oc1ccc(Cc2nc3ccc(O)cc3s2)cc1 [Compound 11]
Human 17β-HSD1
  inhibition at 1 µM: 24%

## O=C(c1cccc(O)c1)c1nc2ccccc2s1 [Compound 12, 1,3-benzothiazol-2-yl(3-hydroxyphenyl)methanone]
Human 17β-HSD1; compared with compound 6
  fold lower 17β-HSD1 inhibitory activity than 6: 8 fold
Human 17β-HSD1
  IC50: 365 nM
  inhibition at 1 µM: 75%
Human 17β-HSD2
  IC50: 1360 nM
  SF, selectivity factor = IC50(17β-HSD2)/IC50(17β-HSD1): 4

## COc1ccc(C(=O)c2nc3ccc(O)cc3s2)cc1 [Compound 13, (6-hydroxy-1,3-benzothiazol-2-yl)(4-methoxyphenyl)methanone]
Human 17β-HSD1
  inhibition at 1 µM: 27%

## O=C(c1ccc(O)cc1)c1nc2ccc(O)cc2s1 [Compound 14, (6-hydroxy-1,3-benzothiazol-2-yl)(4-hydroxyphenyl)methanone]
Human 17β-HSD1
  IC50: 243 nM
  inhibition at 1 µM: 85%
Human 17β-HSD2
  IC50: 2470 nM
  SF, selectivity factor = IC50(17β-HSD2)/IC50(17β-HSD1): 10

## COc1ccc2nc(C(=O)Nc3ccccc3O)sc2c1 [Compound 15]
Human 17β-HSD1
  17β-HSD1 % inhib. (1µM): ni

## O=C(Nc1ccccc1O)c1nc2ccc(O)cc2s1 [Compound 16]
Human 17β-HSD1
  17β-HSD1 % inhib. (1µM): ni

## COc1ccc2nc(C(=O)Nc3cccc(O)c3)sc2c1 [Compound 17]
Human 17β-HSD1
  inhibition at 1 µM: 31%

## O=C(Nc1cccc(O)c1)c1nc2ccc(O)cc2s1 [Compound 18]
Human 17β-HSD1
  IC50: 1310 nM
  inhibition at 1 µM: 40%
Human 17β-HSD2
  IC50: 3810 nM
  SF, selectivity factor = IC50(17β-HSD2)/IC50(17β-HSD1): 3

## COc1ccc(C(=O)Nc2nc3ccc(O)cc3s2)cc1 [Compound 19]
Human 17β-HSD1
  17β-HSD1 % inhib. (1µM): ni.

## O=C(Nc1nc2ccc(O)cc2s1)c1ccc(O)cc1 [Compound 20]
Human 17β-HSD1
  inhibition at 1 µM: 39%

## O=C(Nc1nc2ccc(O)cc2s1)c1cccc(O)c1 [Compound 21]
Human 17β-HSD1
  inhibition at 1 µM: 83%
Human 17β-HSD2
  IC50: 9260 nM

## O=S(=O)(Nc1nc2ccc(O)cc2s1)c1cccc(O)c1 [Compound 22]
Human 17β-HSD1
  17β-HSD1 % inhib. (1µM): inactive and ni

## O=C(Nc1cccc(O)c1)Nc1nc2ccc(O)cc2s1 [Compound 23]
Human 17β-HSD1
  17β-HSD1 % inhib. (1µM): inactive and no inhibition and ni.

## Oc1cccc(NC(=S)Nc2nc3ccc(O)cc3s2)c1 [Compound 24]
Human 17β-HSD1
  17β-HSD1 % inhib. (1µM): moderate inhibitory activity
  inhibition at 1 µM: 62%

## O=C(Cc1cccc(O)c1)Nc1nc2ccc(O)cc2s1 [Compound 25]
Human 17β-HSD1
  17β-HSD1 % inhib. (1µM): inactive and ni

## C[C@]12CC[C@@H]3c4ccc(O)cc4CC[C@H]3[C@@H]1CCC2=O [Compound E1, estrone]
ERs
  RBA for the ERs: about 10%

## C[C@]12CC[C@@H]3c4ccc(O)cc4CC[C@H]3[C@@H]1C[C@H](CCCCCCCCC(=O)OCC1OC(n3cnc4c(N)ncnc43)C(O)C1O)[C@@H]2O (stereo partly shown) [EM-1745]
17β-HSD1
  IC50: 52 nM

Source: paper PMC3252304, “Hydroxybenzothiazoles as New Nonsteroidal Inhibitors of 17β-Hydroxysteroid Dehydrogenase Type 1 (17β-HSD1)” (PLoS ONE, 2012)
